# Experimental data taken from patent US9834525B2, “Inhibitors of paxillin function and related compositions and methods” (UNIVERSITY OF TENNESSEE RESEARCH FOUNDATION, priority 2015, dated 2017).
# “Also recorded” adds a separate entry of the source.
# Assays:
# VLA-4 = VLA-4 protein levels by flow cytometry in UM cells; format: cell-based, human; conditions: UM cells after treatment
# Protocol: Harvested cells were washed and counted. 1.0×10^6 cells were labeled with the following cell surface antibodies: FITC anti-CD54 (ICAM-1, clone HA58, BioLegend), PE anti-CD102 (ICAM-2, clone CBR-IC2/2, BioLegend), PE-Cy7 anti-CD49d (VLA-4, clone 9F10, BioLegend), APC anti-CD106 (VCAM-1, clone STA, BioLegend), PerCP-Cy5.5 anti-CD166 (ALCAM, clone 3A6, BioLegend), Biotin anti-CD326 (EpCAM, clone 1B7, BD Biosciences) using manufacturer's conditions. Cells were incubated in antibody cocktail for 30 minutes on ice followed by two washes with PBS/2% FBS. Second-labeling step was performed using Brilliant Violet 421 Streptavidin (bv421-SA, BioLegend) for 30 minutes on ice followed by two washes as before. […]
# Next, it was investigated if reduced numbers were a consequence of a reduction in UM cells proliferation. Cell cultures in the presence or absence of compound (II-4) were analyzed by follow cytometry for cytoskeletal fragmentation and proliferation. […]
# (§1) FIG. 15: The paxillin inhibitor Compound (II-4) selectively affects cellular proliferation of primary UM cells that become metastatic. […] Unlabeled cells were used to control fluorescence. […] B. Quantitation of experiment +/−SD including primary UM that becomes metastatic (Mel 270), metastatic (OMM 2.1) and primary (92.1) UM cells. *P=0.0007 and **P=0.0005. […] Quantitation of VLA-4 protein levels +/−SD from n=3. […]
# [1] = Microsomal stability, pooled mouse liver microsomes; format: in vitro ADME; conditions: 1 μM, 37° C., 60 min
# Protocol: Microsomal stability of compound (II-4) (1 μM) was assessed in pooled liver microsomes (human, mouse, and rat) (FIG. 7). Briefly, compound (II-4) was incubated in duplicate with microsomes at 37° C. Reactions contained microsomal protein in 100 mM potassium phosphate, 2 mM NADPH, 3 mM MgCl2, pH 7.4. NADPH was omitted to detect NADPH-free degradation. At 60 minutes, the reaction was stopped by adding ice-cold methanol containing internal standard. Samples were centrifuged to remove precipitated protein, and the supernatants were analyzed by LC/MS/MS to quantitate the remaining parent.
# Microsomal stability of compound (II-4) (1 μM) was assessed in pooled liver microsomes (human, mouse, and rat) (FIG. 23). Briefly, compound (II-4) was incubated in duplicate with microsomes at 37° C. Reactions contained microsomal protein in 100 mM potassium phosphate, 2 mM NADPH, 3 mM MgCl2, pH 7.4. NADPH was omitted to detect NADPH-free degradation. At 60 min, the reaction was stopped by adding ice-cold methanol (+ internal standard). Samples were centrifuged to remove precipitated protein, and the supernatants were analyzed by LC/MS/MS to quantitate the remaining parent.
# Pkd1 V/V mouse = assay: Dermal microemulsion delivery to Pkd1 cystic mice (ADPKD model); format: in vivo; conditions: dermal application as microemulsion, neonatal Pkd1 mice
# From the text: Paxillin is abnormally expressed in cystic epithelial cells in a mouse model of ADPKD. […] For this reason, paxillin can be considered to act as a “rheostat” that can be targeted to curtail cystogenesis.
# The paxillin inhibitor compound (II-4) inactivates phosphorylation at Y118 on paxillin using retinal endothelial cells. Compound (II-4) has been formulated as a microemulsion for non-invasive delivery to neonatal Pkd1 non-cystic and cystic mice and it has been observed that renal cystic disease was attenuated as measured by total kidney-to-body weight ratio.
# FIG. 4: Paxillin in ADPKD kidneys. (A) Immunoblot of total paxillin in protein lysates from non-cystic Pkd1^+/+ (n=5) and cystic Pkd1^V/V (n=3) mouse kidneys at post-natal day 11 after 8 days of dermal application of compound (II-4) microemulsion solution. GAPDH was used as a loading control. Densitometry of the bands normalized to GAPDH is shown for (B) paxillin and (C) phospho-paxillin (C). * P<0.005 difference between groups.
# UM tumor cells = assay: Phalloidin (F-actin) analysis by flow cytometry in UM cells; format: cell-based, human; conditions: treatment for 24 hrs
# Protocol: Retinal endothelial cells (REC) and UM-OMM 2.5 cells were harvested, washed and counted. 1.0×10^6 cells were fixed for 1 hr at 4° C. and permeabilized with the Intracellular Fixation and Permeabilization Buffer Kit (eBiosciences, San Diego, Calif.). Cells were washed followed by Alexa-Fluor 647 Phalloidin (MOLECULAR PROBES, Life Technologies, Carlsbad, Calif.) labeling using 1 U/μL. Cells were washed and analyzed using BD LSR II followed by analysis using FlowJo xV10.0.6 software.
# Next, it was investigated if reduced numbers were a consequence of a reduction in UM cells proliferation. Cell cultures in the presence or absence of compound (II-4) were analyzed by follow cytometry for cytoskeletal fragmentation and proliferation. Uncontrolled cytoskeletal remodeling and cell proliferation are considered hallmarks of tumor growth and metastasis. […]
# as §1
compound,measurement,setting,value
COc1cc(C2OC(=O)Nc3c2ccc2ccccc32)cc(OC)c1OC (stereo not shown) [compound II-4],VLA-4 protein levels,VLA-4,does not affect VLA-4 protein
same,microsomal stability (metabolism by cytochrome P-450 enzymes),[1],rapidly metabolized
same,renal cystic disease / cystic disease progression (total kidney-to-body weight ratio),Pkd1 V/V mouse,functional reduction in cystic disease progression; also recorded: attenuated
same,"actin remodeling (intracellular phalloidin, F-actin)",UM tumor cells,no difference in actin remodeling
